Results reported in PubChem BioAssay (NCI).
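Tested at 5 concentrations; 48 h exposure; 96-well plates; endpoints linearly interpolated, else capped at highest concentration. The concentration for 50% growth inhibition is given as GI50. At the TGI there is no net growth.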

How the values were obtained:
Assay in all cases: NCI-60 cell line screen, 48 h
HCT-15 colon = system: HCT-15 colon
SW-620 colon = system: SW-620 colon
NCI-H226 lung = system: NCI-H226 lung
HCT-116 colon = system: HCT-116 colon
OVCAR-8 ovarian = system: OVCAR-8 ovarian
MDA-MB-435 = system: MDA-MB-435
MCF7 breast = system: MCF7 breast
TK-10 renal = system: TK-10 renal
SK-OV-3 ovarian = system: SK-OV-3 ovarian
SF-295 CNS = system: SF-295 CNS
U251 CNS = system: U251 CNS
HL-60(TB) leukemia = system: HL-60(TB) leukemia
SK-MEL-28 melanoma = system: SK-MEL-28 melanoma
K-562 leukemia = system: K-562 leukemia
NCI/ADR-RES ovarian = system: NCI/ADR-RES ovarian
OVCAR-4 ovarian = system: OVCAR-4 ovarian
SF-539 CNS = system: SF-539 CNS
IGROV1 ovarian = system: IGROV1 ovarian
MALME-3M melanoma = system: MALME-3M melanoma
RXF 393 renal = system: RXF 393 renal
NCI-H460 lung = system: NCI-H460 lung
M14 melanoma = system: M14 melanoma
T-47D breast = system: T-47D breast
KM12 colon = system: KM12 colon
LOX IMVI melanoma = system: LOX IMVI melanoma
SNB-75 CNS = system: SNB-75 CNS
MOLT-4 leukemia = system: MOLT-4 leukemia
A498 renal = system: A498 renal
OVCAR-3 ovarian = system: OVCAR-3 ovarian
HS 578T breast = system: HS 578T breast
SK-MEL-5 melanoma = system: SK-MEL-5 melanoma
HT29 colon = system: HT29 colon
MDA-MB-231 breast = system: MDA-MB-231 breast
PC-3 prostate = system: PC-3 prostate
UACC-62 melanoma = system: UACC-62 melanoma
SNB-19 CNS = system: SNB-19 CNS
786-0 renal = system: 786-0 renal
NCI-H522 lung = system: NCI-H522 lung
NCI-H23 lung = system: NCI-H23 lung
CCRF-CEM leukemia = system: CCRF-CEM leukemia
SN12C renal = system: SN12C renal
SR leukemia = system: SR leukemia
A549 NSCLC = system: A549 NSCLC
ACHN renal = system: ACHN renal
DU-145 prostate = system: DU-145 prostate
BT-549 breast = system: BT-549 breast
UO-31 renal = system: UO-31 renal
SK-MEL-2 melanoma = system: SK-MEL-2 melanoma
RPMI-8226 leukemia = system: RPMI-8226 leukemia
COLO 205 colon = system: COLO 205 colon
UACC-257 melanoma = system: UACC-257 melanoma
HOP-62 NSCLC = system: HOP-62 NSCLC
CAKI-1 renal = system: CAKI-1 renal
SF-268 CNS = system: SF-268 CNS
HCC-2998 colon = system: HCC-2998 colon
HOP-92 NSCLC = system: HOP-92 NSCLC
OVCAR-5 ovarian = system: OVCAR-5 ovarian
EKVX NSCLC = system: EKVX NSCLC

CC(=O)Nc1ccc2c(C3=C(c4cn(C)c5ccccc45)C(=O)NC3=O)cn(C)c2c1
GI50 (HCT-15 colon): 1240 nM
TGI (HCT-15 colon): > 25 µM
GI50 (SW-620 colon): 892 nM
TGI (SW-620 colon): > 25 µM
GI50 (NCI-H226 lung): > 6.26 µM
TGI (NCI-H226 lung): > 25 µM
GI50 (HCT-116 colon): 697 nM
TGI (HCT-116 colon): > 16.6 µM
GI50 (OVCAR-8 ovarian): 900 nM
TGI (OVCAR-8 ovarian): > 25 µM
GI50 (MDA-MB-435): 118 nM
TGI (MDA-MB-435): 842 nM
GI50 (MCF7 breast): 294 nM
TGI (MCF7 breast): > 25 µM
GI50 (TK-10 renal): > 25 µM
TGI (TK-10 renal): > 25 µM
GI50 (SK-OV-3 ovarian): 1530 nM
TGI (SK-OV-3 ovarian): > 25 µM
GI50 (SF-295 CNS): 552 nM
TGI (SF-295 CNS): > 5.63 µM
GI50 (U251 CNS): 889 nM
TGI (U251 CNS): > 25 µM
GI50 (HL-60(TB) leukemia): 921 nM
TGI (HL-60(TB) leukemia): > 25 µM
GI50 (SK-MEL-28 melanoma): > 5.94 µM
TGI (SK-MEL-28 melanoma): > 25 µM
GI50 (K-562 leukemia): 762 nM
TGI (K-562 leukemia): > 25 µM
GI50 (NCI/ADR-RES ovarian): 13.9 µM
TGI (NCI/ADR-RES ovarian): > 25 µM
GI50 (OVCAR-4 ovarian): 1280 nM
TGI (OVCAR-4 ovarian): > 25 µM
GI50 (SF-539 CNS): 376 nM
TGI (SF-539 CNS): 1400 nM
GI50 (IGROV1 ovarian): 1470 nM
TGI (IGROV1 ovarian): > 25 µM
GI50 (MALME-3M melanoma): > 25 µM
TGI (MALME-3M melanoma): > 25 µM
GI50 (RXF 393 renal): 512 nM
TGI (RXF 393 renal): > 7.02 µM
GI50 (NCI-H460 lung): 881 nM
TGI (NCI-H460 lung): > 25 µM
GI50 (M14 melanoma): 945 nM
TGI (M14 melanoma): > 25 µM
GI50 (T-47D breast): > 25 µM
TGI (T-47D breast): > 25 µM
GI50 (KM12 colon): 749 nM
TGI (KM12 colon): > 15 µM
GI50 (LOX IMVI melanoma): 634 nM
TGI (LOX IMVI melanoma): > 25 µM
GI50 (SNB-75 CNS): 215 nM
TGI (SNB-75 CNS): > 25 µM
GI50 (MOLT-4 leukemia): 1060 nM
TGI (MOLT-4 leukemia): > 25 µM
GI50 (A498 renal): 386 nM
TGI (A498 renal): 12.8 µM
GI50 (OVCAR-3 ovarian): 737 nM
TGI (OVCAR-3 ovarian): 3.1 µM
GI50 (HS 578T breast): 443 nM
TGI (HS 578T breast): > 25 µM
GI50 (SK-MEL-5 melanoma): 637 nM
TGI (SK-MEL-5 melanoma): 3.12 µM
GI50 (HT29 colon): 833 nM
TGI (HT29 colon): > 25 µM
GI50 (MDA-MB-231 breast): 821 nM
TGI (MDA-MB-231 breast): > 25 µM
GI50 (PC-3 prostate): 802 nM
TGI (PC-3 prostate): > 25 µM
GI50 (UACC-62 melanoma): 1300 nM
TGI (UACC-62 melanoma): > 25 µM
GI50 (SNB-19 CNS): 5.13 µM
TGI (SNB-19 CNS): > 25 µM
GI50 (786-0 renal): 2090 nM
TGI (786-0 renal): > 25 µM
GI50 (NCI-H522 lung): 218 nM
TGI (NCI-H522 lung): 1310 nM
GI50 (NCI-H23 lung): 1160 nM
TGI (NCI-H23 lung): > 25 µM
GI50 (CCRF-CEM leukemia): 77.3 nM
TGI (CCRF-CEM leukemia): > 25 µM
GI50 (SN12C renal): 1250 nM
TGI (SN12C renal): > 25 µM
GI50 (SR leukemia): 363 nM
TGI (SR leukemia): > 25 µM
GI50 (A549 NSCLC): 1050 nM
TGI (A549 NSCLC): > 25 µM
GI50 (ACHN renal): 1420 nM
TGI (ACHN renal): > 25 µM
GI50 (DU-145 prostate): 1010 nM
TGI (DU-145 prostate): > 24.2 µM
GI50 (BT-549 breast): > 25 µM
TGI (BT-549 breast): > 25 µM
GI50 (UO-31 renal): > 9.45 µM
TGI (UO-31 renal): > 25 µM
GI50 (SK-MEL-2 melanoma): 5.69 µM
TGI (SK-MEL-2 melanoma): > 25 µM
GI50 (RPMI-8226 leukemia): 1110 nM
TGI (RPMI-8226 leukemia): > 25 µM
GI50 (COLO 205 colon): 691 nM
TGI (COLO 205 colon): 1.72 µM
GI50 (UACC-257 melanoma): > 14.9 µM
TGI (UACC-257 melanoma): > 25 µM
GI50 (HOP-62 NSCLC): 1150 nM
TGI (HOP-62 NSCLC): > 25 µM
GI50 (CAKI-1 renal): 2080 nM
TGI (CAKI-1 renal): > 25 µM
GI50 (SF-268 CNS): 1360 nM
TGI (SF-268 CNS): > 25 µM
GI50 (HCC-2998 colon): 890 nM
TGI (HCC-2998 colon): > 25 µM

c1ccc(CSSSCc2ccccc2)cc1
TGI (HCT-15 colon): > 100 µM
TGI (SW-620 colon): > 51.9 µM
TGI (HCT-116 colon): 12.1 µM
TGI (OVCAR-8 ovarian): > 41.2 µM
TGI (MDA-MB-435): 2830 nM
TGI (MCF7 breast): > 42.1 µM
TGI (TK-10 renal): > 73.9 µM
TGI (SK-OV-3 ovarian): 22.9 µM
TGI (SF-295 CNS): 49.8 µM
TGI (U251 CNS): 17.1 µM
TGI (HOP-92 NSCLC): > 92.7 µM
TGI (HL-60(TB) leukemia): 3.22 µM
TGI (SK-MEL-28 melanoma): > 100 µM
TGI (NCI/ADR-RES ovarian): 9.78 µM
TGI (OVCAR-4 ovarian): 38 µM
TGI (IGROV1 ovarian): > 90.9 µM
TGI (MALME-3M melanoma): > 100 µM
TGI (RXF 393 renal): 14.8 µM
TGI (NCI-H460 lung): 16.2 µM
TGI (M14 melanoma): > 100 µM
TGI (T-47D breast): > 64.5 µM
TGI (KM12 colon): > 100 µM
TGI (LOX IMVI melanoma): 17.4 µM
TGI (SNB-75 CNS): 39.4 µM
TGI (MOLT-4 leukemia): > 100 µM
TGI (A498 renal): > 100 µM
TGI (OVCAR-3 ovarian): 2.98 µM
TGI (HS 578T breast): > 31 µM
TGI (SK-MEL-5 melanoma): 15.3 µM
TGI (HT29 colon): 19.6 µM
TGI (MDA-MB-231 breast): 23.7 µM
TGI (PC-3 prostate): > 100 µM
TGI (OVCAR-5 ovarian): 41.2 µM
TGI (UACC-62 melanoma): 16.1 µM
TGI (SNB-19 CNS): > 100 µM
TGI (786-0 renal): 12.8 µM
TGI (NCI-H522 lung): 3330 nM
TGI (EKVX NSCLC): > 100 µM
TGI (NCI-H23 lung): > 48.5 µM
TGI (SN12C renal): 18 µM
TGI (SR leukemia): 87.3 µM
TGI (A549 NSCLC): > 100 µM
TGI (ACHN renal): 29.1 µM
TGI (DU-145 prostate): 4.97 µM
TGI (BT-549 breast): 19.8 µM
TGI (UO-31 renal): 37.1 µM
TGI (SK-MEL-2 melanoma): 8.36 µM
TGI (RPMI-8226 leukemia): 10.8 µM
TGI (COLO 205 colon): 11.6 µM
TGI (UACC-257 melanoma): > 95.4 µM
TGI (HOP-62 NSCLC): 5.03 µM
TGI (CAKI-1 renal): 22.6 µM
TGI (SF-268 CNS): 31.4 µM
TGI (HCC-2998 colon): 17.8 µM
